Where two headings read alike, the source gives them in different places.
What was measured:
[1] = Solubility of the salts in water and organic solvents; type: physicochemical
[2] = PB therapy, cited from earlier work
[3] = in vivo; cited from earlier work
[4] = Specificity of the anion for Cs^+ in aqueous solution; details: versus other cations
Description: For [H2NB2(C6F5)6]^− and [(H3O2)B2(C6F5)6]^− the process appears 100% specific for cesium so that cesium is quantitatively and exclusively separated from all other cations in the aqueous solution. Thus, a single and fully selective separation step is necessary only to separate cesium from the other components in the form of the intermediate Cs[L]. In a second step, intermediate Cs[L] is converted into the desired product CsA, allowing recycling of [L].
The interest of the inventors in weakly coordinating anions (WCAs) has led them to synthesize the new cesium salt, Cs[H2NB2(C6F5)6] (2). The inventors realized that (2) is insoluble in water and that it is instantaneously formed by mixing any aqueous solution containing Cs^+ with virtually any source of the [H2NB2(C6F5)]^− anion. The reaction is 100% specific for Cs^+, since only in this case [H2NB2(C6F5)6]^− changes its usual asymmetric conformation to an “inverse C2 symmetric” conformation to form a specific 3D lattice.

[5] = Isolation of Cs[H2NB2(C6F5)6] (2) from neat water containing CsCl
Procedure: [Na(OEt2)3][H2NB2(C6F5)6] (69.6 mg, 0.0541 mmol; FW=1285.4; c≈0.9·10^−4 M) was dissolved in 570 mL of water. CsCl (9.5 mg, 0.0564 mmol; FW=168.4) was added and after brief mixing the clear solution was left unstirred. Soon colorless crystals began to separate. The mixture was left overnight and the precipitate was isolated by filtration; yield of 2 42.1 mg (0.0359 mmol, 66%; FW=1172.9). The aqueous mother liquor was extracted once with 20 mL of CH2Cl2. Evaporation of the solvent gave an additional crop of 20 mg (0.0170 mmol, 32%). Total isolated yield was 62.1 mg (0.053 mmol; 98%). The IR spectra of the isolated solids were identical with that of pure Cs[H2NB2(C6F5)6] (2).

[6] = Isolation of 2 from water containing other metal salts; details: 450 mL water with CsCl 5·10^−5 mol/L plus KCl, PbCl2, CrCl3, CaCl2, FeCl3; reagent c≈4.75·10^−5 M
Procedure: To a water solution (450 mL), containing the inorganic salts listed below, was added [Na(OEt2)3][H2NB2(C6F5)6] (27.5 mg, 0.0214 mmol; FW=1285.4; c≈4.75·10^−5 M) and the suspension was stirred overnight. A brown precipitate resulted (color presumably arising from Fe(OH)3) which was filtered off and was washed with dichloromethane to extract 2. The solvent of the extract was evaporated to dryness to leave a colorless residue: yield 19.2 mg of 2 (0.0163 mmol, 76%; FW=1172.9), identified by comparison of the IR spectrum with that of pure 2.
List of Added Inorganic Salts

## Fc1c(F)c(F)c([B-]([NH2+][B-](c2c(F)c(F)c(F)c(F)c2F)(c2c(F)c(F)c(F)c(F)c2F)c2c(F)c(F)c(F)c(F)c2F)(c2c(F)c(F)c(F)c(F)c2F)c2c(F)c(F)c(F)c(F)c2F)c(F)c1F.[Cs+] [Compound 2, Cs[H2NB2(C6F5)6]]
[1]; CH2Cl2, THF and solvents of low dielectric constant
  solubility in CH2Cl2, THF, chloroform, Et2O and toluene: dissolves well
[1]; MeOH
  solubility in MeOH: only limited soluble
[1]; alkanes
  solubility in alkanes: virtually insoluble
[1]
  solubility in water: virtually insoluble
[1]; listed as Cs[H2NB2(C6F5)6]
  solubility in water: insoluble

## Fc1c(F)c(F)c([B-](c2c(F)c(F)c(F)c(F)c2F)(c2c(F)c(F)c(F)c(F)c2F)c2c(F)c(F)c(F)c(F)c2F)c(F)c1F.[Cs+] [Compound 7, Cs[B(C6F5)4]]
[1]
  solubility in water: insoluble

## Fc1c(F)c(F)c([B-](c2c(F)c(F)c(F)c(F)c2F)(c2c(F)c(F)c(F)c(F)c2F)c2c(F)c(F)c(F)c(F)c2F)c(F)c1F.[Rb+] [Compound 8, Rb[B(C6F5)4]]
[1]
  solubility in water: water insoluble

## Fc1c(F)c(F)c([B-](c2c(F)c(F)c(F)c(F)c2F)(c2c(F)c(F)c(F)c(F)c2F)c2c(F)c(F)c(F)c(F)c2F)c(F)c1F.[Tl+] [Compound 9, Tl[B(C6F5)4], reference compound]
[1]
  solubility in water: water insoluble

## [C-]#N.[C-]#N.[C-]#N.[C-]#N.[C-]#N.[C-]#N.[C-]#N.[C-]#N.[C-]#N.[C-]#N.[C-]#N.[C-]#N.[C-]#N.[C-]#N.[C-]#N.[C-]#N.[C-]#N.[C-]#N.[Fe+2].[Fe+2].[Fe+2].[Fe+3].[Fe+3].[Fe+3].[Fe+3] [Prussian blue, ferric hexacyanoferrate]
[2]; adolescents
  biological half-life of retention of cesium: ~30 days
[2]; adults
  biological half-life of retention of cesium: approximately 26 days
[2]; children
  biological half-life of retention of cesium: ~24 days
[3]
  absorption by the body via the bowels: not absorbed by the body via the bowels to a noticeable extent

## Fc1c(F)c(F)c([B-]([NH2+][B-](c2c(F)c(F)c(F)c(F)c2F)(c2c(F)c(F)c(F)c(F)c2F)c2c(F)c(F)c(F)c(F)c2F)(c2c(F)c(F)c(F)c(F)c2F)c2c(F)c(F)c(F)c(F)c2F)c(F)c1F [[H2NB2(C6F5)6]^−]
[4]
  specificity for cesium: 100%

## CCOCC.CCOCC.CCOCC.Fc1c(F)c(F)c([B-]([NH2+][B-](c2c(F)c(F)c(F)c(F)c2F)(c2c(F)c(F)c(F)c(F)c2F)c2c(F)c(F)c(F)c(F)c2F)(c2c(F)c(F)c(F)c(F)c2F)c2c(F)c(F)c(F)c(F)c2F)c(F)c1F.[Na+] [[Na(OEt2)3][H2NB2(C6F5)6]]
[5]; neat water 570 mL, reagent c≈0.9·10^−4 M, overnight, filtration
  yield of 2 precipitated from water: 66%
[5]; neat water, precipitate plus one CH2Cl2 extraction of the mother liquor
  total isolated yield of 2: 98%
[6]
  yield of 2 isolated from water containing other metal salts: 76%

## Cs[(C6F5)3B(OH2)—(HO)B(C6F5)3] [Compound 5]
[1]
  solubility in water: water insoluble
[1]; listed as Cs[H(OH)2B2(C6F5)6]
  solubility in water: insoluble

## [(H3O2)B2(C6F5)6]^−
[4]
  specificity for cesium: 100%

Reference: patent US11279715B2, “Process for removing radioactive isotopes from aqueous fluids by fluorine containing reagents, fluorine containing, water-insoluble salts of the radioactive isotopes, and their use as therapeutic agents” (priority 2016, dated 2022)
